# Assay results reported in US20250302973A1, “POLYMER CONJUGATES OF DRUGS WITH CENTRAL NERVOUS SYSTEM (CNS) EFFECTS AND […] BLOCKING ACTIVITY AND/OR IMMUNE SYSTEM […]” (UNIVERSITY OF PADOVA, priority 2022, published 2025).
# Legend:
# C57BL6/J male mice = test: Open field test, total locomotor activity as distance travelled; type: in vivo; conditions: intraperitoneal 0.3 mg/kg MK-801 or equivalent dose, test 10 min after injection, compared with vehicle, n=7 per group
# Protocol: The present inventors used 7 C57BL6/J male (3-4 months old) mice per treatment group, keeping them in a temperature-controlled room (22° C.) on a 12:12 h light-dark cycle (light on at 7:00 AM) and fed a standard pellet diet and tap water ad libitum. Experimental mice were habituated to the testing room by transferring them to the behavioural room 30 min prior to beginning of the test. The open field test was conducted between 9:00 am and 4:00 pm. MK-801 and derivatives were dissolved in a vehicle composed by 0.9% NaCl physiological solution. Each mouse was singly placed at the corner of a grey-painted open field arena (40×40×30 cm) 10 min after the intraperitoneal injection (Volume of injection 0.1 mL) of either Vehicle, 0.3 mg/kg MK-801, or the equivalent dose of 0.3 mg/kg MK-801 of the PEG 4 MK-801, PEG 6 MK-801, PEG 8 MK-801 or PEG 10 MK-801 derivatives. Using an automated behavioral tracking system (Videotrack, View Point Life Science), we determined the total locomotor activity measured as distance travelled by the animal during the 10 min duration of the test.
# A-549 cells = test: A-549 lung cells co-cultured 24 hours with THP-1-derived macrophages, mRNA expression of inflammatory cytokines; conditions: 1 μM; A-549 cells incubated (co-culture) with macrophages derived from THP-1 cells; effect only in presence of macrophages
SMILES,distance travelled by the mice during 10 min in the Open Field Test (C57BL6/J male mice),mRNA expression of the inflammatory cytokine CCL-2 (A-549 cells),mRNA expression of the inflammatory cytokine IL-1β (A-549 cells)
"C[C@]12N[C@H](Cc3ccccc31)c1ccccc12 [MK-801, dizocilpine]",significantly increased,reduces,reduces
"CCC(=O)C(C[C@H](C)N(C)C)(c1ccccc1)c1ccccc1 [esmethadone, (S)-methadone]",,reduces,reduces
